The target in the assay is T1, Endothelial lipase (EL) (Homo sapiens, UniProt Q9Y5X9).
T1 construct: HT-1080 cells, which were transformed by RAGE technology (Athersys) to overexpress endogenous EL; endogenous in cells; conditioned medium used as the enzyme source
T1 sequence (Q9Y5X9 21-500): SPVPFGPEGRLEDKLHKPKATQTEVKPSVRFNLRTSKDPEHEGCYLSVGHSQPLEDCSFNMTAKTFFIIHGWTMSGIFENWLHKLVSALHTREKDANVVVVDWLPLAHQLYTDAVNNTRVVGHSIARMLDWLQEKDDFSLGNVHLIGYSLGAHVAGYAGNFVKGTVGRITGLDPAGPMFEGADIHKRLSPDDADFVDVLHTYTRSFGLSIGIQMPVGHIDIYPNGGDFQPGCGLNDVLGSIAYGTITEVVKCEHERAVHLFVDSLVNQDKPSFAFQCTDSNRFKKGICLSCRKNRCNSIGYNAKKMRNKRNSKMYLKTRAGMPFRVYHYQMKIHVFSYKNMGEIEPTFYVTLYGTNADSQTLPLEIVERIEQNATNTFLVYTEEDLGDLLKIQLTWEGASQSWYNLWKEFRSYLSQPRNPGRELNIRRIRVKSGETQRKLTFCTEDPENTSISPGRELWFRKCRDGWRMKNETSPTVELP
Put plainly: Endothelial lipase (EL) enzymatic assay with fluorescent substrate A10070 in DMPG vesicles. In kind it is biochemical. An outline of the steps: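 The enzyme source was conditioned medium from HT-1080 cells engineered to overexpress endogenous EL. It was preincubated with compound for 20 min at 37 °C in 50 mM HEPES pH 8.0, 50 mM NaCl, 1 mM CaCl2. Reactions started with DMPG vesicles carrying FRET substrate A10070 (mole fraction 0.05). The rate was taken from the linear slope of fluorescence (ex 488/em 530 nm) over 10 min.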

Where [1] appears, read: range observed in the EL assay, read-out: EL IC50 values.
Setting [2] is: conditioned media from HT-1080 cells overexpressing endogenous EL, 20 min preincubation at 37° C., read-out: EL IC50.

This is an account of results in US9199946B2, “Pyrimidinone carboxamide inhibitors of endothelial lipase” (BRISTOL-MYERS SQUIBB COMPANY, priority 2012, dated 2015).

Where two headings read alike, the source gives them in different places.

What is called IC50 is the concentration at which inhibition is half-maximal.

`O=C(N[C@H]1CC[C@@H](c2ccccc2)CC1)c1[nH]c(=O)[nH]c(=O)c1NCc1ccccc1C(F)(F)F` [Example 215, 2,6-dioxo-N-(cis-4-phenylcyclohexyl)-5-(2-(trifluoromethyl)benzylamino)-1,2,3,6-tetrahydropyrimidine-4-carboxamide]: under setting [1], the IC50 is at most 10 µM.

In the case of `CCn1c(=O)c(O)c(C(=O)N[C@H]2CC[C@@H](c3ccccc3)CC2)n(Cc2ccccc2)c1=O` [Example 240, 3-Benzyl-1-ethyl-5-hydroxy-2,6-dioxo-N-(cis-4-phenylcyclohexyl)-1,2,3,6-tetrahydropyrimidine-4-carboxamide], the IC50 reads like this: under setting [2], 0.024 µM; under setting [1], at most 10 µM.

On to `O=C(N[C@H]1CC[C@@H](c2ccccc2)CC1)c1[nH]c(=O)[nH]c(=O)c1NCCN1CCOCC1` [Example 211, 5-(2-morpholinoethylamino)-2,6-dioxo-N-(cis-4-phenylcyclohexyl)-1,2,3,6-tetrahydropyrimidine-4-carboxamide], for which the IC50 under setting [2] turned out to be 0.291 µM and the IC50 under setting [1] was at most 10 µM.

In the case of `Nc1c(C(=O)N[C@H]2CCc3ccc(C(F)(F)F)cc32)[nH]c(=O)[nH]c1=O` [Example 15, (S)-5-amino-2,6-dioxo-N-(6-(trifluoromethyl)-2,3-dihydro-1H-inden-1-yl)-1,2,3,6-tetrahydropyrimidine-4-carboxamide], under setting [2], the IC50 is 13 µM.

As to `O=C(N[C@H]1CC[C@@H](c2ccccc2)CC1)c1[nH]c(=O)[nH]c(=O)c1NCCc1ccc(Cl)cc1` [Example 218, 5-(4-chlorophenethylamino)-2,6-dioxo-N-(cis-4-phenylcyclohexyl)-1,2,3,6-tetrahydropyrimidine-4-carboxamide], the IC50 reads like this: under setting [2], 0.296 µM; under setting [1], at most 10 µM.

Consider `O=C(N[C@H]1CC[C@@H](c2ccccc2)CC1)c1[nH]c(=O)[nH]c(=O)c1NCc1ccc(C(F)(F)F)cc1` [Example 220, 2,6-dioxo-N-(cis-4-phenylcyclohexyl)-5-(4-(trifluoromethyl)benzylamino)-1,2,3,6-tetrahydropyrimidine-4-carboxamide], for which the IC50 under setting [1] is at most 10 µM.

Turning to `CC(C)(C)C1CCC(NC(=O)c2[nH]c(=O)[nH]c(=O)c2N)CC1` (stereo not shown) [Example 44, 5-amino-N-(4-tert-butylcyclohexyl)-2,6-dioxo-1,2,3,6-tetrahydropyrimidine-4-carboxamide], under setting [1], the IC50 is at most 10 µM.

Take `O=C(N[C@H]1C[C@@H](c2ccccc2)c2ccccc21)c1[nH]c(=O)[nH]c(=O)c1O` [Example 247, 5-hydroxy-2,6-dioxo-N-((1S,3S)-3-phenyl-2,3-dihydro-1H-inden-1-yl)-1,2,3,6-tetrahydropyrimidine-4-carboxamide]: the IC50 under setting [1] is at most 10 µM.

`O=C(N[C@@H]1CCc2cc(C(F)(F)F)ccc21)c1[nH]c(=O)[nH]c(=O)c1O` [Example 249, (R)-5-hydroxy-2,6-dioxo-N-(5-(trifluoromethyl)-2,3-dihydro-1H-inden-1-yl)-1,2,3,6-tetrahydropyrimidine-4-carboxamide]: the half-inhibitory concentration (IC50) under setting [1] was at most 10 µM.

On to `Nc1c(C(=O)NC2CCCc3ccsc32)[nH]c(=O)[nH]c1=O` (stereo not shown) [Example 46, 5-amino-2,6-dioxo-N-(4,5,6,7-tetrahydrobenzo[b]thiophen-7-yl)-1,2,3,6-tetrahydropyrimidine-4-carboxamide], for which the IC50 runs as follows: under setting [2], 3.32 µM; under setting [1], at most 10 µM.

In the case of `Nc1c(C(=O)NC2CCCC(c3cnn(Cc4ccccc4)c3)C2)[nH]c(=O)[nH]c1=O` (stereo not shown) [Example 127, 5-amino-N-(3-(1-benzyl-1H-pyrazol-4-yl)cyclohexyl)-2,6-dioxo-1,2,3,6-tetrahydropyrimidine-4-carboxamide], the IC50 is, setting by setting: under setting [2], 0.03 µM; under setting [1], at most 10 µM.

Regarding `O=C(N[C@@H]1CC[C@@H](C(=O)N[C@H]2CC[C@@H](c3ccccc3)CC2)C1)c1[nH]c(=O)[nH]c(=O)c1O` [Example 297, 5-hydroxy-2,6-dioxo-N-((1R,3R)-3-((1s,4S)-4-phenylcyclohexylcarbamoyl)cyclopentyl)-1,2,3,6-tetrahydropyrimidine-4-carboxamide], under setting [1], the IC50 is at most 10 µM.

In the case of `O=C(N[C@H]1CC[C@@H](c2cccc(C(F)(F)F)c2)CC1)c1[nH]c(=O)[nH]c(=O)c1O` [Example 257, 5-hydroxy-2,6-dioxo-N-((1s,4s)-4-(3-(trifluoromethyl)phenyl)cyclohexyl)-1,2,3,6-tetrahydropyrimidine-4-carboxamide], the IC50 under setting [1] is at most 10 µM.

Regarding `Nc1c(C(=O)N[C@H]2CC[C@@H](c3ccc(OCc4ccccc4)cc3)CC2)[nH]c(=O)[nH]c1=O` [Example 114, 5-amino-N-(cis-4-(4-(benzyloxy)phenyl)cyclohexyl)-2,6-dioxo-1,2,3,6-tetrahydropyrimidine-4-carboxamide], the IC50 under setting [1] is at most 10 µM.

Regarding `CC(C)Oc1ccc(C2CCC(NC(=O)c3[nH]c(=O)[nH]c(=O)c3O)C2)cc1` (stereo not shown) [Example 294, 5-hydroxy-N-(3-(4-isopropoxyphenyl)cyclopentyl)-2,6-dioxo-1,2,3,6-tetrahydropyrimidine-4 carboxamide], under setting [1], the IC50 is at most 10 µM.

`NC(=O)c1ccc(N2CCC(NC(=O)c3[nH]c(=O)[nH]c(=O)c3N)C2)nc1` (stereo not shown) [Example 188, 5-amino-N-(1-(5-carbamoylpyridin-2-yl)pyrrolidin-3-yl)-2,6-dioxo-1,2,3,6-tetrahydropyrimidine-4-carboxamide]: under setting [1], the IC50 is at most 10 µM.

Regarding `O=C(N[C@@H]1CCC[C@@H](c2ccccc2)C1)c1[nH]c(=O)[nH]c(=O)c1O` [Example 278, 5-hydroxy-2,6-dioxo-N-((1R,3R)-3-phenylcyclohexyl)-1,2,3,6-tetrahydropyrimidine-4-carboxamide], under setting [1], the IC50 is at most 10 µM.

Regarding `CS(=O)(=O)N1CCC(NC(=O)c2[nH]c(=O)[nH]c(=O)c2N)c2ccccc21` (stereo not shown) [Example 24, 5-amino-N-(1-(methylsulfonyl)-1,2,3,4-tetrahydroquinolin-4-yl)-2,6-dioxo-1,2,3,6-tetrahydropyrimidine-4-carboxamide], the IC50 under setting [2] worked out at 0.568 µM and the IC50 under setting [1] is at most 10 µM.

As to `Cc1nn(C)c(C)c1-c1ccc([C@@H]2CC[C@H](NC(=O)c3[nH]c(=O)[nH]c(=O)c3N)C2)cc1` [Example 159, 5-amino-2,6-dioxo-N-((1S,3R)-3-(4-(1,3,5-trimethyl-1H-pyrazol-4-yl)phenyl)cyclopentyl)-1,2,3,6-tetrahydropyrimidine-4-carboxamide], the concentration for half-maximal inhibition (IC50) under setting [1] was at most 10 µM.

Consider `Nc1c(C(=O)N[C@@H]2CCC[C@@H]2c2ccc(Cl)cc2)[nH]c(=O)[nH]c1=O` [Example 64, 5-amino-N-((1R,2R)-2-(4-chlorophenyl)cyclopentyl)-2,6-dioxo-1,2,3,6-tetrahydropyrimidine-carboxamide], for which the IC50 under setting [1] is at most 10 µM.

Consider `Nc1c(C(=O)N[C@@H]2CC[C@@H](c3ccccc3)c3ccccc32)[nH]c(=O)[nH]c1=O` [Example 20, 5-amino-2,6-dioxo-N-((1R,4S)-4-phenyl-1,2,3,4-tetrahydronaphthalen-1-yl)-1,2,3,6-tetrahydropyrimidine-4-carboxamide], for which the IC50 under setting [1] was at most 10 µM.

For the molecule `CC(C)CNc1c(C(=O)N[C@H]2CC[C@@H](c3ccccc3)CC2)[nH]c(=O)[nH]c1=O` [Example 206, 5-(isobutylamino)-2,6-dioxo-N-(cis-4-phenylcyclohexyl)-1,2,3,6-tetrahydropyrimidine-4-carboxamide], the IC50 under setting [1] is at most 10 µM.

On to `CC(C)(C)COc1ccc(C2CCC(NC(=O)c3[nH]c(=O)[nH]c(=O)c3N)C2)cc1` (stereo not shown) [Example 143, 5-amino-N-(3-(4-(neopentyloxy)phenyl)cyclopentyl)-2,6-dioxo-1,2,3,6-tetrahydropyrimidine-4-carboxamide], for which the IC50 under setting [1] is at most 10 µM.

As for `COC(=O)[C@H]1CC[C@@H](NC(=O)c2[nH]c(=O)[nH]c(=O)c2N)CC1` [Example 43, cis-methyl 4-(5-amino-2,6-dioxo-1,2,3,6-tetrahydropyrimidine-4-carboxamido) cyclohexanecarboxylate], the IC50 under setting [1] was at most 10 µM.

On to `Cn1c(C(=O)N[C@H]2CC[C@@H](c3ccccc3)CC2)c(O)c(=O)[nH]c1=O` [Example 241, 5-Hydroxy-3-methyl-2,6-dioxo-N-(cis-4-phenylcyclohexyl)-1,2,3,6-tetrahydropyrimidine-4-carboxamide], for which the IC50 under setting [1] is at most 10 µM.

Take `Nc1c(C(=O)N[C@@H]2CCCc3ccccc32)[nH]c(=O)[nH]c1=O` [Example 13, (R)-5-amino-2,6-dioxo-N-(1,2,3,4-tetrahydronaphthalen-1-yl)-1,2,3,6-tetrahydropyrimidine-4-carboxamide]: the IC50 under setting [1] was at most 10 µM.

In the case of `O=C(N[C@H]1CCC[C@H](c2ccccc2)C1)c1[nH]c(=O)[nH]c(=O)c1O` [Example 277, 5-hydroxy-2,6-dioxo-N-((1S,3S)-3-phenylcyclohcxyl)-1,2,3,6-tetrahydropyrimidine-4-carboxamide], under setting [1], the IC50 is at most 10 µM.

As to `Nc1c(C(=O)N[C@H]2CCCc3ccccc32)[nH]c(=O)[nH]c1=O` [Example 10, (S)-5-amino-2,6-dioxo-N-(1,2,3,4-tetrahydronaphthalen-1-yl)-1,2,3,6-tetrahydropyrimidine-4-carboxamide], the IC50 under setting [1] was at most 10 µM.
